Source: patent US6780866B2, “Analgesic composition and method” (priority 2001, dated 2004)
Values joined by “and” are separate entries in the source; they are usually repeats but may differ in a detail not shown here. Identical values can stand only once.

Columns and labels:
[1] = system: heat-induced tail-flick (nociceptive pain); set-up: species or system Kunming mice; conditions: mouse, in vivo
Procedure: 320 screened mice, half male and half female, were randomly divided into 16 groups. They were not given food, only water 12 hours prior to dosing.
The heat tail flick analgesia meter includes a heat source consisting of a 12 V, 50 watt, 8.75 mm projector lamp. The light beam from the heat source was focused and directed to a point on the tail of a mouse being tested, having a distance of 1-2 mm plus ⅓ of the tail length to the tail end.
The test drugs were given intramuscularly. […] The tail-flick latencies, which were assessed in response to a noxious heat stimulus, i.e., the response time from applying radiant heat on the dorsal surface of the tail to the occurrence of tail flick, were measured and recorded at 15, 30, 45, 60, 90, 120, 150, 180 min. after dosing. For each measurement, three readings were made consecutively one minute apart, and their average was recorded as the latency. The testing on one animal would be terminated when tail-flick was not observed within 20 seconds, and the latency would be recorded as 20 seconds. The pain inhibition rate was calculated according to the following formula for the purpose of assessing the analgesia potency: […]
The results were processed with SPSS, a statistical software provided by SPSS, Inc. of Chicago, Ill., USA. Half effective dose (ED50) and half inhibition dose (ID50) were calculated with the probit method.

[2] = system: formalin-induced inflammatory pain; set-up: species or system Wistar male rats; conditions: rat, in vivo
pain = conditions: in vivo; cited from earlier work
[3] = system: formalin-induced inflammatory pain; conditions: rat, in vivo; cited from earlier work

Compound	ED95 of morphine [1]	ID50 of morphine [1] [mg/kg]	ID50 of morphine [2] [mg/kg]	analgesic potency relative to morphine (pain)	Inhibition rate (%) ([1]; 3 mg/kg)	Latency after dosing ([1]; 3 mg/kg)	inhibition [3] [%]	Inhibition rate (%) ([2]; 3 mg/kg)	Pain reaction score ([2]; 3 mg/kg)
CN1CC[C@]23c4c5ccc(O)c4O[C@H]2[C@@H](O)C=C[C@H]3[C@H]1C5.Cl [Morphine, Morphine hydrochloride]	0.77	0.33	2.30						
N=C1NC(O)C2C3OC4(O)OC(C(O)C2(N1)C4O)C3(O)CO (stereo not drawn) [TTX, octahydro-12-(hydroxymethyl)-2-imino-5,9:7,10a-dimethano-10aH-[1,3]dioxocino[6,5-d]pyrimidine-4,7,10,11,12-pentol]				about 3,000 times	5.44% and 12.06%	5.88 ± 1.00 and 6.04 ± 0.76	71.7	32.9% and 11.6%	169.1 ± 47.2 and 223.0 ± 58.3
